The target of the test is T1, LHRH (Rattus norvegicus, UniProt P30969).
T1 construct: endogenous in cells; host or cells: rat pituitary cells (own knowledge of the cited Haviv 1989 method)
T1 sequence (P30969 1-327): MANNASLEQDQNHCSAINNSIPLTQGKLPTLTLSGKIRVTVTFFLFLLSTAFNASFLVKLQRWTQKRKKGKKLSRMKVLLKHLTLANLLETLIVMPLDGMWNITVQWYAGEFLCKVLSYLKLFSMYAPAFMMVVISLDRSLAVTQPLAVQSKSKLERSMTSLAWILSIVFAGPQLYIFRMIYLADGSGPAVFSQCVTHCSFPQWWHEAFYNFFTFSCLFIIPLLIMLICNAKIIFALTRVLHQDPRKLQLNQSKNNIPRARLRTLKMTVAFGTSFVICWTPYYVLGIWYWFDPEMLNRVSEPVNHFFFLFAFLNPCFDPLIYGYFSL
Description: in vitro test for LHRH antagonist potency (pA2). It is filed as cell-based. The conditions noted are these: negative logarithm of the antagonist concentration required to shift the response curve produced by the agonist leuprolide to two-fold higher concentration. The gist of the method: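 Rat LHRH receptor in vitro functional test; pA2 = negative log of the antagonist concentration shifting the leuprolide agonist response curve to two-fold higher concentration.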

Non-standard residues stand in square brackets, D forms with d. Residues, ends and D or L forms follow the SMILES beside them. Groups on a side chain read outwards from the residue. *: point of attachment. dAla(benzothien-2-yl) = N[C@H](Cc1cc2ccccc2s1)C(=O)O; Shikimoyl = O=C(C1=C[C@@H](O)[C@@H](O)[C@H](O)C1)*; dPhe(4-Cl) = N[C@H](Cc1ccc(Cl)cc1)C(=O)O; d1Nal = N[C@H](Cc1cccc2ccccc12)C(=O)O; d2Nal = N[C@H](Cc1ccc2ccccc2c1)C(=O)O; Lys(iPr) = CC(C)NCCCC[C@H](N)C(=O)O; NMeY = CN[C@@H](Cc1ccc(O)cc1)C(=O)O; hArg = N=C(N)NCCCC[C@H](N)C(=O)O; d3Pal = N[C@H](Cc1cccnc1)C(=O)O; Isonicotinoyl = O=C(c1ccncc1)*; Nicotinoyl = O=C(c1cccnc1)*; 2Furoyl = O=C(c1ccco1)*; azaGly = NNC(=O)O; βAla = NCCC(=O)O; Sar = CNCC(=O)O

In the case of `CC(C)C[C@H](NC(=O)[C@@H](CCCCNC(=O)C1=C[C@@H](O)[C@@H](O)[C@H](O)C1)NC(=O)[C@H](Cc1ccc(O)cc1)N(C)C(=O)[C@H](CO)NC(=O)[C@@H](Cc1cccnc1)NC(=O)[C@@H](Cc1ccc(Cl)cc1)NC(=O)[C@@H](Cc1ccc2ccccc2c1)NC(=O)CCNC(=O)c1cccnc1)C(=O)N[C@@H](CCCCNC(=N)N)C(=O)N1CCC[C@H]1C(=O)N[C@H](C)C(N)=O` [Example 28, N-Nicotinyl-3Aminopropionyl-D2Nal-D4ClPhe-D3Pal-Ser-NMeTyr-DLys(Shik)-Leu-Harg-Pro-DAlaNH2] ({Nicotinoyl-βAla}-[d2Nal][dPhe(4-Cl)][d3Pal]S[NMeY][dK](Shikimoyl)L[hArg]P[dA]-NH2), the Kb is 0.00977 nM.

For the molecule `CC(C)C[C@H](NC(=O)[C@@H](CCCCNC(=O)CNC(=O)c1cccnc1)NC(=O)[C@H](Cc1ccc(O)cc1)N(C)C(=O)[C@H](CO)NC(=O)[C@@H](Cc1cccnc1)NC(=O)[C@@H](Cc1ccc(Cl)cc1)NC(=O)[C@@H](Cc1ccc2ccccc2c1)NC(=O)C1=C[C@@H](O)[C@@H](O)[C@H](O)C1)C(=O)N[C@@H](CCCCNC(C)C)C(=O)N1CCC[C@H]1C(=O)N[C@H](C)C(N)=O` [Example 29, N-Shikimyl-D2Nal-D4ClPhe-D3Pal-Ser-NMeTyr-DLys(GlyNic)-Leu-Lys(Isp)-Pro-DAlaNH2] (Shikimoyl-[d2Nal][dPhe(4-Cl)][d3Pal]S[NMeY][dK]([Gly-Nicotinoyl])L[Lys(iPr)]P[dA]-NH2), the Kb is 0.0257 nM.

Regarding `CC(C)C[C@H](NC(=O)[C@@H](CCCCNC(=O)NNC(=O)c1cccnc1)NC(=O)[C@H](Cc1ccc(O)cc1)N(C)C(=O)[C@H](CO)NC(=O)[C@@H](Cc1cccnc1)NC(=O)[C@@H](Cc1ccc(Cl)cc1)NC(=O)[C@@H](Cc1ccc2ccccc2c1)NC(=O)C1=C[C@@H](O)[C@@H](O)[C@H](O)C1)C(=O)N[C@@H](CCCCNC(C)C)C(=O)N1CCC[C@H]1C(=O)N[C@H](C)C(N)=O` [Example 30b, N-Shik-D2Nal-D4ClPhe-D3Pal-Ser-NMeTyr-DLys(Azagly-Nic)-Leu-Lys(Isp)-Pro-DAlaNH2] (Shikimoyl-[d2Nal][dPhe(4-Cl)][d3Pal]S[NMeY][dK]([azaGly-Nicotinoyl])L[Lys(iPr)]P[dA]-NH2), the Kb is 0.0295 nM.

`CC(C)C[C@H](NC(=O)[C@@H](CCCCNC(=O)NNC(=O)c1ccco1)NC(=O)[C@H](Cc1ccc(O)cc1)N(C)C(=O)[C@H](CO)NC(=O)[C@@H](Cc1cccnc1)NC(=O)[C@@H](Cc1ccc(Cl)cc1)NC(=O)[C@@H](Cc1ccc2ccccc2c1)NC(=O)C1=C[C@@H](O)[C@@H](O)[C@H](O)C1)C(=O)N[C@@H](CCCCNC(C)C)C(=O)N1CCC[C@H]1C(=O)N[C@H](C)C(N)=O` [Example 30c, N-Shik-D2Nal-D4ClPhe-D3Pal-Ser-NMeTyr-DLys(Azagly-2Fur)-Leu-Lys(Isp)-Pro-DAlaNH2] (Shikimoyl-[d2Nal][dPhe(4-Cl)][d3Pal]S[NMeY][dK]([azaGly-2Furoyl])L[Lys(iPr)]P[dA]-NH2): the Kb was 0.038 nM.

Take `CC(C)C[C@H](NC(=O)[C@@H](CCCCNC(=O)NNC(=O)c1cccnc1)NC(=O)[C@H](Cc1ccc(O)cc1)N(C)C(=O)[C@H](CO)NC(=O)[C@@H](Cc1cccnc1)NC(=O)[C@@H](Cc1ccc(Cl)cc1)NC(=O)[C@@H](Cc1ccc2ccccc2c1)NC(=O)NNC(=O)c1cccnc1)C(=O)N[C@@H](CCCCNC(C)C)C(=O)N1CCC[C@H]1C(=O)N[C@H](C)C(N)=O` [Example 31, N-Nicotinyl-Azagly-D2Nal-D4ClPhe-D3Pal-Ser-NMeTyr-DLys(Azagly-Nic)-Leu-Lys(Isp)-Pro-DAlaNH2] (Nicotinoyl-[azaGly][d2Nal][dPhe(4-Cl)][d3Pal]S[NMeY][dK]([azaGly-Nicotinoyl])L[Lys(iPr)]P[dA]-NH2): the Kb is 0.0195 nM.

Take `CC(C)C[C@H](NC(=O)[C@@H](CCCCNC(=O)c1cccnc1)NC(=O)[C@H](Cc1ccc(O)cc1)N(C)C(=O)[C@H](CO)NC(=O)[C@@H](Cc1cc2ccccc2s1)NC(=O)[C@@H](Cc1ccc(Cl)cc1)NC(=O)NNC(=O)c1cccnc1)C(=O)N[C@@H](CCCCNC(C)C)C(=O)N1CCC[C@H]1C(=O)N[C@H](C)C(N)=O` [Example 32, N-Nicotinyl-Azagly-D4ClPhe-DBal-Ser-NMeTyr-DLys(Nic)-Leu-Lys(Isp)-Pro-DAlaNH2] (Nicotinoyl-[azaGly][dPhe(4-Cl)][dAla(benzothien-2-yl)]S[NMeY][dK](Nicotinoyl)L[Lys(iPr)]P[dA]-NH2): the Kb is 0.0141 nM.

With `CC(C)C[C@H](NC(=O)[C@@H](CCCCNC(=O)c1cccnc1)NC(=O)[C@H](Cc1ccc(O)cc1)N(C)C(=O)[C@H](CO)NC(=O)[C@@H](Cc1cc2ccccc2s1)NC(=O)[C@@H](Cc1ccc(Cl)cc1)NC(=O)NNC(=O)c1ccco1)C(=O)N[C@@H](CCCCNC(C)C)C(=O)N1CCC[C@H]1C(=O)N[C@H](C)C(N)=O` [Example 33a, N-(2-Furoyl)-Azagly-D4ClPhe-DBal-Ser-NMeTyr-DLys(Nic)-Leu-Lys(Isp)-Pro-DAlaNH2] (2Furoyl-[azaGly][dPhe(4-Cl)][dAla(benzothien-2-yl)]S[NMeY][dK](Nicotinoyl)L[Lys(iPr)]P[dA]-NH2), the antagonist dissociation constant (Kb) was 0.00631 nM.

`CC(C)C[C@H](NC(=O)[C@@H](CCCCNC(=O)c1cccnc1)NC(=O)[C@H](Cc1ccc(O)cc1)N(C)C(=O)[C@H](CO)NC(=O)[C@@H](Cc1cc2ccccc2s1)NC(=O)[C@@H](Cc1ccc(Cl)cc1)NC(=O)NNC(=O)c1ccncc1)C(=O)N[C@@H](CCCCNC(C)C)C(=O)N1CCC[C@H]1C(=O)N[C@H](C)C(N)=O` [Example 33b, N-Isonicotinyl-Azagly-D4ClPhe-DBal-Ser-NMeTyr-DLys(Nic)-Leu-Lys(Isp)-Pro-DAlaNH2] (Isonicotinoyl-[azaGly][dPhe(4-Cl)][dAla(benzothien-2-yl)]S[NMeY][dK](Nicotinoyl)L[Lys(iPr)]P[dA]-NH2): the Kb was 0.02 nM.

As for `CC(C)C[C@H](NC(=O)[C@@H](CCCCNC(=O)c1cccnc1)NC(=O)[C@H](Cc1ccc(O)cc1)N(C)C(=O)[C@H](CO)NC(=O)[C@@H](Cc1cccc2ccccc12)NC(=O)[C@@H](Cc1ccc(Cl)cc1)NC(=O)NNC(=O)c1cccnc1)C(=O)N[C@@H](CCCCNC(C)C)C(=O)N1CCC[C@H]1C(=O)N[C@H](C)C(N)=O` [Example 33c, N-Nicotinyl-Azagly-D4ClPhe-D1Nal-Ser-NMeTyr-DLys(Nic)-Leu-Lys(Isp)-Pro-DAlaNH2] (Nicotinoyl-[azaGly][dPhe(4-Cl)][d1Nal]S[NMeY][dK](Nicotinoyl)L[Lys(iPr)]P[dA]-NH2), the antagonist equilibrium constant (Kb) was 0.00501 nM.

Consider `CC(C)C[C@H](NC(=O)[C@@H](CCCCNC(=O)c1cccnc1)NC(=O)[C@H](Cc1ccc(O)cc1)N(C)C(=O)[C@H](CO)NC(=O)[C@@H](Cc1cccc2ccccc12)NC(=O)[C@@H](Cc1ccc(Cl)cc1)NC(=O)CN(C)C(=O)CNC(=O)c1cccnc1)C(=O)N[C@@H](CCCCNC(C)C)C(=O)N1CCC[C@H]1C(=O)N[C@H](C)C(N)=O` [Example 35a, Nic-Gly-Sar-D4ClPhe-D1Nal-Ser-NMeTyr-DLys(Nic)-Leu-Lys(Isp)-Pro-DAlaNH2] (Nicotinoyl-G[Sar][dPhe(4-Cl)][d1Nal]S[NMeY][dK](Nicotinoyl)L[Lys(iPr)]P[dA]-NH2), for which the Kb is 0.1 nM.

Usually Kb stands for the equilibrium dissociation constant of an antagonist, usually derived from a functional assay.

The record behind these values is patent US5502035A, “N-terminus modified analogs of LHRH” (Tap Holdings Inc., priority 1994, dated 1996).
